Test results from patent publication US8445467B2, “Reducing risk of type 2 diabetes (T2D)” (Joslin Diabetes Center, Inc., priority 2006, dated 2013).
Values joined by “and” are separate entries in the source; they are usually repeats but may differ in a detail not shown here. Equal values may be shown once. “Also recorded” adds a separate entry of the source.

How the values were obtained:
[1] = system: overweight non-diabetic adults; assay: Insulin, C-peptide and HOMA-IR in double-masked placebo controlled trial; type: in vivo, human
Excerpt: (§1) The ability of high doses of systemic salsalate to reduce systemic inflammation and improve metabolic parameters was investigated in a double-masked placebo controlled trial of 20 overweight non-diabetic adults (age: 24 yrs±1, gender 17F/3M, BMI 38 kg/m^2±2), evaluated at baseline and after one month of dally administration of oral salsalate 4 g or placebo.
(§2) Participants were instructed to consume a standard high-carbohydrate diet (250-300 grams/day) and abstain from strenuous exercise for three days prior to undergoing, baseline and final evaluations. Subjects were additionally instructed not to alter dietary or exercise habits daring the study Blood pressure was measured twice with the patient supine for 10 minutes. Fasting lipids and cytokines were measured, and oral glucose tolerance tests (OGTT) were performed with glucose, insulin, C-peptide and free fatty acid levels measured prior to and 30, 60, 90 and 120 minutes after 75-gram glucose load. All subjects were non-diabetic based on current American Diabetes Association guidelines (Diagnosis and Classification of Diabetes Mellitus. Diabetes Care 28:S37-S42 (2005)). AUC data were calculated by triangulation. Insulin resistance was determined using homeostasis model assessment (HOMA-IR) for insulin and C-peptide as described using the modified formula: HOMA-IRC-peptide=(fasting C-peptide*fasting glucose)/22.5 See, e.g., Matthews et al, Diabetologia 28:41.2-419 (1985); Wallace et al., Diabetes Care 27; 1487-4495 (2004).
(§3) Compliance was evaluated with blood salicylate levels.
(§4) Glucose was measured by glucose oxidation, cholesterol and HDL by cholesterol esterase assay, triglycerides via hydrolysis to glycerol and FFA (Beckman Synchron CX3delta and CX9, Beckman Coulter, Brea, Calif.), and glycohemoglobin by HPLC (TOSHO 2.2™, Tosoh Bioscience, San Francisco, Calif.). Immunoassays were performed in duplicate on serum specimens by commercial assay including RIA for insulin and C-peptide (Diagnostic Systems Laboratories, Webster, Tex.), and adiponectin (Linco research, St. Charles, Mo., USA); ELISA for free fatty acids (WAKO chemicals, Richmond, Va., USA), and IL-6 and VCAM-1 (R& D Systems, Minneapolis, Minn., USA). CRP was analysed by immunoturbidometry (WAKO chemicals, Richmond, Va., USA), Salicylate levels were assessed commercially using a colorimetric assay (Quest Laboratories, Cambridge, Mass., USA). Glycated albumin was evaluated with the use of a Hitachi 911 lipid and protein analyzer and kits from AsahiKasei (Tokyo, JP). Glycated albumin was calculated by determining (1) the colorimetric measurement of total, albumin; (2) partial enzymatic digestion of albumin at glycated sites; (3) re-assessment of albumin; (4) % glycated albumin=1-3.
(§5) The primary endpoint was change from, baseline in glycemic measures using between group comparisons. Secondary outcomes were also assessed as change from baseline within group. Data are presented as mean±standard error unless otherwise noted. Unpaired (salsalate vs. placebo) and paired (pre vs. post) Student t-tests were performed. Treatment effects were determined by calculating differences between baseline sad end of treatment values divided by the baseline value to determine a percent change for each participant. Repeated measures of ANOVA and area under curve analyses were performed to compare response to oral glucose load before and after treatment. Only subjects completing the trial were included in data analysis. Results were considered significant with two-tailed p-values <0.05.

[2] = system: cyclooxygenase enzymes; details: cited from earlier work
[3] = system: overweight non-diabetic adults; assay: Glycemia (fasting glucose, OGTT, glycated albumin) in double-masked placebo controlled trial; type: in vivo, human
Excerpt: as §1
Subjects were under 30 years old, and obese as defined by a body mass Index (BMI) of ≧ 30 kg/m^2 Participants were excluded for recent blood donation, change in weight of more than 5% in the preceding six months or use of medication known to alter weight, acute febrile illness, biochemical evidence of renal or hepatic dysfunction, aspirin allergy, history of gastritis or gastrointestinal bleeding, current medications known to altar glucose metabolism, or diabetes mellitus based on screening evaluation. Female participants were excluded for pregnancy, lactation, or lack of current use of a hormonal or barrier contraceptive method.
as §2, §3, §4
as §5, with “Repeated measures of ANOVA and area under curve analyses were performed to compare response to oral glucose load before and after treatment. Only subjects completing the trial were included in data analysis. Results were considered significant with two-tailed p-values <0.05.” left out

[4] = system: IKKβ/NF-κB; details: cited from earlier work
[5] = system: overweight non-diabetic adults; assay: Cytokines, adipokines and inflammatory markers pre- and post-one month of therapy; type: in vivo, human
Description: as §1, §4, §5
To evaluate the proposed anti-inflammatory mechanism of action for improvement in glycemia, cytokines and adipokines were assessed pre- and post-one month of therapy in the same population described in Example 1.

[6] = system: overweight non-diabetic adults; assay: Safety and tolerability in the trial
[7] = following one month of salsalate therapy
[8] = over the one-month period, p>0.1

Q: For O=C(Oc1ccccc1C(=O)O)c1ccccc1O [salsalate, 2-hydroxybenzoE acid, 2-carboxyphenyl ester], which “fasting C-peptide levels after treatment” value ([1]; after one month of salsalate, baseline 1.6±0.2, p=0.02) is on record?
A: 1.1 ± 0.2 nmol/L

Q: And the “reduction in C-peptide AUC post glucose challenge” value ([1]; one month of salsalate, placebo increase of 4±7%, p=0.02)?
A: 23±4%

Q: What about the “reduction in fasting C-peptide, change from baseline” value ([1]; one month of salsalate, placebo increase of 5±6%, p<0.01) of the same molecule?
A: 30±7%

Q: What about the “HOMA IRc peptide lowered by” value ([1]; one month of salsalate, placebo increased 9±5%, p=0.003) of the same molecule?
A: 35±8%

Q: And the “HOMA-IR using insulin, post treatment” value ([1]; post one month of salsalate, pre 4.6±0.9, p=0.9, not significantly changed)?
A: 4.2±0.6

Q: And the fasting insulin values ([1]; pre vs post one month of salsalate)?
A: unchanged

Q: What about the “insulin levels following glucose challenge” value ([1]; pre- and post-salsalate, 75 g oral glucose) of the same molecule?
A: remained unchanged

Q: And the “insulin sensitivity calculated by HOMA IRc-peptide (FIG. 2C)” value ([1]; salsalate compared to placebo)?
A: improvement

Q: And the “C peptide response to Oral Glucose Tolerance Test calculated by AUC (FIG. 2C)” value ([1]; salsalate vs placebo)?
A: significant between group difference

Q: What about the “inhibition of cyclooxygenase enzymes compared to aspirin” value [2] of the same molecule?
A: much weaker inhibitor

Q: What about the “fasting glucose compared to placebo (FIG. 1A)” value [3] of the same molecule?
A: reduced

Q: What about the “glycated albumin compared to placebo (FIG. 1A)” value [3] of the same molecule?
A: reduced

Q: What about the “post oral glucose challenge glucose area under the curve compared to placebo (FIG. 1A)” value [3] of the same molecule?
A: reduced

Q: What about the “fasting plasma glucose level after treatment” value ([3]; after one month of salsalate, baseline 5.0±0.2, p<0.03) of the same molecule?
A: 4.6 ± 0.1 mmol/L

Q: And the “glycated albumin after treatment” value ([3]; after one month of salsalate, baseline 12.4±0.4%, p<0.003)?
A: 10.3±0.3%

Q: And the “reduction in glucose area under the curve during oral glucose tolerance testing” value ([3]; oral salsalate 4 g daily, one month, 75 g oral glucose, placebo increased by 6±3%, p=0.003)?
A: 14±5%

Q: And the “reduction in fasting glucose, change from baseline” value ([3]; oral salsalate 4 g daily, one month, mean±SE, placebo increase of 5±2%, p<0.002)?
A: 8±4%

Q: And the “reduction in glycated albumin, change from baseline” value ([3]; oral salsalate 4 g daily, one month, placebo 0.6±0.9%, p<0.002)?
A: 17±4%

Q: What about the “glycemia response to glucose load” value ([3]; within group, one month of salsalate, repeated measure analysis p<0.01) of the same molecule?
A: improvements in glycemia; also recorded: improved

Q: And the “inhibition of IKKβ/NF-κB compared to aspirin” value [4]?
A: equipotent inhibitor

Q: And the “adiponectin compared to placebo (FIG. 3A)” value [5]?
A: increased significantly

Q: What about the “fasting non-esterified fatty acids (FFA) levels after treatment” value ([5]; after one month of salsalate, baseline 0.46±0.08, p=0.05) of the same molecule?
A: 0.25±0.05 mEq/L

Q: What about the adiponectin after treatment ([5]; after one month of salsalate, baseline 10.6±1.7, p=0.01) of the same molecule?
A: 16.2 ± 2.7 mg/L

Q: What about the “CRT concentrations after treatment” value ([5]; after one month of salsalate, baseline 48.2±10.5, p=0.05) of the same molecule?
A: 30.2 ± 7.4 nmol/L

Q: What about the II-6 [5, 7] of the same molecule?
A: did not change significantly

Q: And the “soluble VCAM-1” value [5, 7]?
A: did not change significantly

Q: And the “adiponectin increase, change from baseline” value ([5]; one month of salsalate, placebo decreased 1±5%, p=0.003)?
A: 56±17%

Q: What about the “C-reactive protein (CRP) following treatment (FIG. 3B)” value ([5]; p<0.05) of the same molecule?
A: lower

Q: What about the “Free Fatty Acids (FFA) following treatment (FIG. 3B)” value ([5]; p<0.05) of the same molecule?
A: lower

Q: What about the “reduced dose tolerated without symptoms (individual participants)” value ([6]; actively treated participants after dose reduction) of the same molecule?
A: 3.5 grams per day and 3.0 grams per day

Q: And the “participants with transient mild transaminitis at the final visit” value ([6]; actively treated, resolved spontaneously)?
A: two

Q: What about the “changes in anion gap” value ([6]; during the trial) of the same molecule?
A: no noted changes

Q: And the “changes in laboratory analysis of electrolytes” value ([6]; during the trial)?
A: no noted changes

Q: And the “changes in laboratory analysis of renal function” value ([6]; during the trial)?
A: no noted changes

Q: And the “ALT/AST elevation in individual actively treated participants” value ([6]; final visit, resolved spontaneously)?
A: similarly mild elevation in both ALT and AST; also recorded: less than twice the upper range of normal

Q: What about the “participants requiring dose reduction due to complaints of tinnitus, headache or dizziness” value ([6]; initiated on 4.0 grams/day orally in two equal doses, on study medication) of the same molecule?
A: Two

Q: What about the symptomatic hypoglycemia ([6]; one month, 4 g daily) of the same molecule?
A: No symptomatic hypoglycemia

Q: What about the “change in mean alanine aminotransferase (ALT)” value [6, 8] of the same molecule?
A: no statistically significant change

Q: What about the “change in mean aspartate aminotransferase (AST)” value [6, 8] of the same molecule?
A: no statistically significant change

Q: And the respiratory distress ([6]; participants with rash on active therapy)?
A: No respiratory distress

Q: What about the “participants withdrawn due to rash” value ([6]; received active therapy) of the same molecule?
A: three
